Converted amounts (≈) assume the structure as drawn. The source made the active and inactive calls. The rule behind the calls is not given here.
Legend:
Caenorhabditis elegans = test: Nematicidal activity against Caenorhabditis elegans at 100 ug/ml; type: functional, organism-based
Botrytis cinerea = test: Antimicrobial activity against Botrytis cinerea assessed as inhibition of conidial germination after 16 hrs by inverted microscopic analysis; type: functional
Penicillium chrysogenum = test: Antimicrobial activity against Penicillium notatum assessed as inhibition of conidial germination after 16 hrs by inverted microscopic analysis; type: functional
Paecilomyces variotii = test: Antimicrobial activity against Paecilomyces variotii assessed as inhibition of conidial germination after 16 hrs by inverted microscopic analysis; type: functional
Rhizomucor miehei = test: Antimicrobial activity against Mucor miehei assessed as inhibition of conidial germination after 16 hrs by inverted microscopic analysis; type: functional
Brevibacillus brevis = test: Antimicrobial activity against Bacillus brevis at 50 ug/disk by agar diffusion assay; type: functional; settings: read-out: IZ
Bacillus subtilis = test: Antimicrobial activity against Bacillus subtilis at 50 ug/disk by agar diffusion assay; type: functional; settings: read-out: IZ
Eremothecium coryli = test: Antimicrobial activity against Nematospora coryli at 50 ug/disk by agar diffusion assay; type: functional; settings: read-out: IZ
Escherichia coli = test: Antimicrobial activity against Escherichia coli K-12 by serial dilution test; type: functional
[1] = test system: Enterobacter cloacae subsp. dissolvens; test: Antimicrobial activity against Enterobacter dissolvens by serial dilution test; type: functional
Proteus vulgaris = test: Antimicrobial activity against Proteus vulgaris by serial dilution test; type: functional
[2] = Cytotoxicity against human HeLaS3 cells assessed as reduction in cell proliferation; type: functional, cell-based; settings: HeLa S3
Lepidium sativum [3] = test: […] against Lepidium sativum assessed as seed germination up to 300 ug/ml; type: functional, organism-based
Setaria italica [4] = test: […] against Setaria italica assessed as seed germination up to 300 ug/ml; type: functional, organism-based
Meloidogyne incognita = test: Nematicidal activity against Meloidogyne incognita at 100 ug/ml; type: functional, organism-based
Lepidium sativum [5] = test: […] against Lepidium sativum assessed as inhibition of seedling growth up to 300 ug/ml; type: functional, organism-based
Setaria italica [6] = test: […] against Setaria italica assessed as inhibition of seedling growth up to 300 ug/ml; type: functional, organism-based
Pyricularia grisea = test: Antimicrobial activity against Magnaporthe grisea assessed as inhibition of conidial germination after 16 hrs by inverted microscopic analysis; type: functional
Fusarium graminearum = test: Antimicrobial activity against Fusarium graminearum assessed as inhibition of conidial germination after 16 hrs by inverted microscopic analysis; type: functional
Phytophthora infestans = test: Antimicrobial activity against Phytophthora infestans assessed as inhibition of conidial germination after 16 hrs by inverted microscopic analysis; type: functional

SMILES	Activity (Caenorhabditis elegans)	IC100 (Botrytis cinerea) [µg/mL]	IC100 (Penicillium chrysogenum) [µg/mL]	IC100 (Paecilomyces variotii) [µg/mL]	IC100 (Rhizomucor miehei) [µg/mL]	zone of inhibition at 50 µg/disc (Brevibacillus brevis) [mm]	zone of inhibition at 50 µg/disc (Bacillus subtilis) [mm]	zone of inhibition at 50 µg/disc (Eremothecium coryli) [mm]	MIC (Escherichia coli) [µg/mL]	MIC [1] [µg/mL]	MIC (Proteus vulgaris) [µg/mL]	IC50 [2] [µg/mL]	Activity (Lepidium sativum [3])	Activity (Setaria italica [4])	Activity (Meloidogyne incognita)	Activity (Lepidium sativum [5])	Activity (Setaria italica [6])	IC100 (Pyricularia grisea) [µg/mL]	IC100 (Fusarium graminearum) [µg/mL]	IC100 (Phytophthora infestans) [µg/mL]
COc1cc(O)c2c(c1)C(=O)C1=C(C2=O)C(OC)OC(C)=C1 (configuration not stated) [ASCOMYCONE A]	inactive	>50	>50	>50	50	14	11	0	> 50	> 50	> 50	5 (≈ 16.5 µM)	inactive	inactive	inactive	inactive	inactive			
COc1cc(O)c2c(c1)C(=O)C1=C(C2=O)C(O)OC(C)=C1 (configuration not stated) [ASCOMYCONE B]	inactive	5	10	>50	10	11	10	13	> 50	> 50	> 50	5 (≈ 17.3 µM)	inactive	inactive	inactive	inactive	inactive	1	0.5	5
CO/C=C1/C(=O)c2c(O)cc(OC)cc2C(=O)C1(O)CC(C)=O (configuration not stated) [ASCOMYCONE C]	inactive	50	15	>50	>50	7	0	11	> 50	> 50	> 50	50 (≈ 156 µM)	inactive	inactive	inactive	inactive	inactive	2.5	2.5	5

From ChEMBL document CHEMBL1154148, “Ascomycones A-C, heptaketide metabolites from an unidentified ascomycete” (J Nat Prod, 2008)
